Source: patent publication US6821980B1, “Substituted 5-benzyl-2,4-diaminopyrimidines” (Basilea Pharmaceutica AG, priority 1999, dated 2004)
Values after ≈ are worked out from the molar mass of the structure shown. Like-named read-outs stand apart in the source and are kept apart here.

Experiments:
[1] = target: purified DHFR of strain 157/4696 of Staphylococcus aureus (Staphylococcus aureus, UniProt P13955); assay: biochemical
[2] = tested on: Staphylococcus aureus 101; assay: MIC against Staphylococcus aureus 101; type: cell-based; conditions: read-out: MIC Sa101
[3] = tested on: Streptococcus pneumoniae 1/1; assay: MIC against Streptococcus pneumoniae 1/1; type: cell-based
[4] = target: T1, purified DHFR of strain Sp1/1 of Streptococcus pneumoniae (Streptococcus pneumoniae serotype 4, UniProt Q54801); type: biochemical; conditions: IC50 against purified DHFR of strain Sp1/1
T1 sequence (Q54801 1-168 I100L): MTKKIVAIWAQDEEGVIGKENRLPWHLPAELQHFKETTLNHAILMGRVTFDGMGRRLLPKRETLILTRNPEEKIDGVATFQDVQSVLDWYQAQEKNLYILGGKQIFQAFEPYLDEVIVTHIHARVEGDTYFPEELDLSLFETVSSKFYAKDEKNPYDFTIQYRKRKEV

[5] = Table 2, Staphylococcus aureus 101, MRSA- and trimethoprim-resistant, clinical isolate
[6] = Table 2, Streptococcus pneumoniae 1/1, trimethoprim- and penicillin-resistant, serotype 6, clinical isolate, read-out: MIC Sp1/1

purified DHFR of strain 157/4696 of Staphylococcus aureus, sequence (P13955 whole entry): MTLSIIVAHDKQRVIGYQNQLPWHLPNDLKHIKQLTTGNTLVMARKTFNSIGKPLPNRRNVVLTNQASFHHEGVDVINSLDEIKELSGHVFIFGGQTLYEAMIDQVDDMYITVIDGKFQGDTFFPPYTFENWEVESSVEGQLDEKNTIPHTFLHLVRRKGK

Compound | IC50 [1] | MIC [2, 5] | MIC [3, 6] | IC50 ([4]; Table 2) | MIC ([2]; Staphylococcus aureus, MRSA) | MIC ([3]; Streptococcus pneumoniae, 1/1, read-out: MIC Sp1/1) | MIC ([2]; Table 1, Staphylococcus aureus 101, MRSA- and trimethoprim-resistant, clinical isolate) | MIC ([3]; Table 1, Streptococcus pneumoniae 1/1, trimethoprim- and penicillin-resistant, serotype 6, clinical isolate, read-out: MIC Sp1/1) | IC50 ([4]; Table 1)
CCOc1cc(Cc2cnc(N)nc2N)cc(OCC)c1-c1ccco1 [Example 02-o, 5-(3,5-Diethoxy-4-furan-2-yl-benzyl)-pyrimidine-2,4-diamine] | 2200 nM | 4 µg/mL (≈ 11.3 µM) | 4 µg/mL (≈ 11.3 µM) | 100 nM | – | – | – | – | –
CCOc1cc(Cc2cnc(N)nc2N)cc(OCC)c1-c1cccnc1 [Example 02-p, 5-(3,5-Diethoxy-4-pyridin-3-yl-benzyl)-pyrimidine-2,4-diamine] | 2200 nM | 8 µg/mL (≈ 21.9 µM) | 4 µg/mL (≈ 10.9 µM) | 100 nM | – | – | – | – | –
CCOc1cc(Cc2cnc(N)nc2N)cc(OCC)c1-c1ccc(C)cc1 [Example 02-q, 5-(2,6-Diethoxy-4′-methyl-biphenyl-4-ylmethyl)-pyrimidine-2,4-diamine] | 1100 nM | 4 µg/mL (≈ 10.6 µM) | 8 µg/mL (≈ 21.1 µM) | 79 nM | – | – | – | – | –
CCOc1cc(Cc2cnc(N)nc2N)cc(OCC)c1-c1ccc2c(c1)OCO2 [Example 02-r, 5-(4-Benzo[1,3]dioxol-5-yl-3,5-diethoxy-benzyl)-pyrimidine-2,4-diamine] | 2500 nM | 4 µg/mL (≈ 9.79 µM) | 4 µg/mL (≈ 9.79 µM) | 70 nM | – | – | – | – | –
CCOc1cc(Cc2cnc(N)nc2N)cc(OCC)c1-c1ccc(O)c(C)c1 [Example 02-s, 4′-(2,4-Diamino-pyrimidin-5-ylmethyl)-2′,6′-diethoxy-3-methyl-biphenyl-4-ol] | 2200 nM | 4 µg/mL (≈ 10.1 µM) | 8 µg/mL (≈ 20.3 µM) | 83 nM | – | – | – | – | –
CCOc1cc(Cc2cnc(N)nc2N)cc(OCC)c1-c1ccc(O)cc1 [Example 02-t, 4′-(2,4-Diamino-pyrimidin-5-ylmethyl)-2′,6′-diethoxy-biphenyl-4-ol] | 1100 nM | – | – | 81 nM | 8 µg/mL (≈ 21 µM) | 4 µg/mL (≈ 10.5 µM) | – | – | –
CCOc1cc(Cc2cnc(N)nc2N)cc(OCC)c1-c1cccc(C#N)c1 [Example 02-u, 4′-(2,4-Diamino-pyrimidin-5-ylmethyl)-2′,6′-diethoxy-biphenyl-3-carbonitrile] | 4000 nM | 8 µg/mL (≈ 20.5 µM) | 4 µg/mL (≈ 10.3 µM) | 180 nM | – | – | – | – | –
CCOc1cc(Cc2cnc(N)nc2N)cc(OCC)c1-c1ccc(N(C)C)cc1 [Example 02-v, 5-(4′-Dimethylamino-2,6-diethoxy-biphenyl-4-ylmethyl)-pyrimidine-2,4-diamine] | 10000 nM | 8 µg/mL (≈ 19.6 µM) | 4 µg/mL (≈ 9.82 µM) | 110 nM | – | – | – | – | –
CCOc1cc(Cc2cnc(N)nc2N)cc(OCC)c1-c1ccc(CN2CCOCC2)cc1 [Example 02-w, 5-(2,6-Diethoxy-4′-morpholine-4-ylmethyl-biphenyl-4-ylmethyl)-pyrimidine-2,4-diamine] | 2200 nM | 8 µg/mL (≈ 17.3 µM) | 4 µg/mL (≈ 8.63 µM) | 280 nM | – | – | – | – | –
CCOc1cc(Cc2cnc(N)nc2N)cc(OCC)c1-c1ccc2c(c1)OCCO2 [Example 02-x, 5-[4-(2,3-Dihydro-benzo[1,4]dioxin-6-yl)-3,5-diethoxy-benzyl]-pyrimidine-2,4-diamine] | 2330 nM | 8 µg/mL (≈ 18.9 µM) | 2 µg/mL (≈ 4.73 µM) | 75 nM | – | – | – | – | –
CCOc1cc(Cc2cnc(N)nc2N)cc(OCC)c1-c1cccc(N(C)C)c1 [Example 02-y, 5-(3′-Dimethylamino-2,6-diethoxy-biphenyl-4-ylmethyl)-pyrimidine-2,4-diamine] | 800 nM | 8 µg/mL (≈ 19.6 µM) | 4 µg/mL (≈ 9.82 µM) | 150 nM | – | – | – | – | –
CCOc1cc(Cc2cnc(N)nc2N)cc(OCC)c1-c1cccc([N+](=O)[O-])c1 [Example 02-z, 5-(2,6-Diethoxy-3′-nitro-biphenyl-4-ylmethyl)-pyrimidine-2,4-diamine] | 1600 nM | 8 µg/mL (≈ 19.5 µM) | 8 µg/mL (≈ 19.5 µM) | 60 nM | – | – | – | – | –
CCOc1cc(Cc2cnc(N)nc2N)cc(OCC)c1-c1cccc(N)c1 [Example 2a, 5-(3′-Amino-2,6-diethoxy-biphenyl-4-ylmethyl)-pyrimidine-2,4-diamine] | 750 nM | – | – | – | – | – | 8 µg/mL (≈ 21.1 µM) | 4 µg/mL (≈ 10.5 µM) | 30 nM
CCOc1cc(Cc2cnc(N)nc2N)cc(OCC)c1-c1ccc(COCC(=O)N2CCOCC2)s1 [Example 03-a, 2-[5-[4-(2,4-Diamino-pyrimidin-5-ylmethyl)-2,6-diethoxy-phenyl]-thiophen-2-ylmethoxyl]-1-morpholin-4-yl-ethanone] | 1800 nM | 8 µg/mL (≈ 15.2 µM) | 2 µg/mL (≈ 3.79 µM) | 31 nM | – | – | – | – | –
CCOc1cc(Cc2cnc(N)nc2N)cc(OCC)c1-c1ccc(COCC(=O)N2CCSCC2)s1 [Example 03-b, 2-[5-[4-(2,4-Diamino-pyrimidin-5-ylmethyl)-2,6-diethoxy-phenyl]-thiophen-2-ylmethoxy]-1-thiomorpholin-4-yl-ethanone] | 1600 nM | 8 µg/mL (≈ 14.7 µM) | 2 µg/mL (≈ 3.68 µM) | 19 nM | – | – | – | – | –
CCOc1cc(Cc2cnc(N)nc2N)cc(OCC)c1-c1ccc(COCC(=O)N2CCCCC2)s1 [Example 03-c, 2-[5-[4-(2,4-Diamino-pyrimidin-5-ylmethyl)-2,6-diethoxy-phenyl]-thionhen-2-ylmethoxy]-1-piperidin-1-yl-ethanone] | 2000 nM | 8 µg/mL (≈ 15.2 µM) | 2 µg/mL (≈ 3.8 µM) | 11 nM | – | – | – | – | –
CCOc1cc(Cc2cnc(N)nc2N)cc(OCC)c1-c1cc(C)nc(C)c1 [Example 03-d, 5-[4-(2,6-Dimethyl-pyridin-4-yl)-3,5-diethoxy-benzyl]-pyrimidine-2,4-diamine] | 6000 nM | 8 µg/mL (≈ 20.3 µM) | 8 µg/mL (≈ 20.3 µM) | 340 nM | – | – | – | – | –
CCOc1cc(Cc2cnc(N)nc2N)cc(OCC)c1-c1ccc(SC)nc1 [Example 03-e, 5-[3,5-Diethoxy-4-(6-methylsulphanyl-pyridin-3-yl)-benzyl]-pyrimidine-2,4-diamine] | 2100 nM | 8 µg/mL (≈ 19.4 µM) | 4 µg/mL (≈ 9.72 µM) | 80 nM | – | – | – | – | –
CCOc1cc(Cc2cnc(N)nc2N)cc(OCC)c1-c1ccc(C#N)cc1 [Example 04-a, 4′-(2,4-Diamino-pyrimidin-5-ylmethyl)-2′,6′-diethoxy-biphenyl-4-carbonitrile] | 2700 nM | 8 µg/mL (≈ 20.5 µM) | 4 µg/mL (≈ 10.3 µM) | 82 nM | – | – | – | – | –
CCOc1cc(Cc2cnc(N)nc2N)cc(OCC)c1-c1ccc(CN2CCCC2)c(F)c1 [Example 04-aa, 5-(2,6-Diethoxy-3′-fluoro-4′-pyrrolidin-1-ylmethyl-biphenyl-4-ylmethyl)-pyrimidine-2,4-diamine] | 1800 nM | 8 µg/mL (≈ 17.2 µM) | 8 µg/mL (≈ 17.2 µM) | 330 nM | – | – | – | – | –
CCOc1cc(Cc2cnc(N)nc2N)cc(OCC)c1-c1ccc(NC)cc1 [Example 04-ab, 5-(2,6-Diethoxy-4′-methylamino-biphenyl-4-ylmethyl)-pyrimidine-2,4-diamine] | 1400 nM | 8 µg/mL (≈ 20.3 µM) | 4 µg/mL (≈ 10.2 µM) | 120 nM | – | – | – | – | –
CCOc1cc(Cc2cnc(N)nc2N)cc(OCC)c1-c1ccc(CN(C)CCF)cc1 [Example 04-ac, 5-(2,6-Diethoxy-4′-{[N-(2-fluoro-ethyl)-N-methyl-amino]-methyl}-biphenyl-4-ylmethyl)-pyrimidine-2,4-diamine] | 450 nM | 8 µg/mL (≈ 17.6 µM) | 4 µg/mL (≈ 8.82 µM) | 59 nM | – | – | – | – | –
CCOc1cc(Cc2cnc(N)nc2N)cc(OCC)c1-c1ccc(CN(C)CCF)c(F)c1 [Example 04-ad, 5-(2,6-Diethoxy-3′-fluoro-4′-{[N-(2-fluoro-ethyl)-N-methyl-amino]-methyl}-biphenyl-4-ylmethyl)-pyrimidine-2,4-diamine] | 2700 nM | 8 µg/mL (≈ 17 µM) | 4 µg/mL (≈ 8.48 µM) | 170 nM | – | – | – | – | –
CCOc1cc(Cc2cnc(N)nc2N)cc(OCC)c1-c1cc(C)cc(N)c1 [Example 04-ae, 5-(5′-Amino-2,6-diethoxy-3′-methyl-biphenyl-4-ylmethyl)-pyrimidine-2,4-diamine] | 1400 nM | 8 µg/mL (≈ 20.3 µM) | 8 µg/mL (≈ 20.3 µM) | 19 nM | – | – | – | – | –
CCOc1cc(Cc2cnc(N)nc2N)cc(OCC)c1-c1ccc(CNCCF)cc1 [Example 04-ag, 5-{2,6-Diethoxy-4′-[(2-fluoro-ethylamino)-methyl]-biphenyl-4-ylmethyl}-pyrimidine-2,4-diamine] | 1800 nM | 8 µg/mL (≈ 18.2 µM) | 8 µg/mL (≈ 18.2 µM) | 350 nM | – | – | – | – | –
CCOc1cc(Cc2cnc(N)nc2N)cc(OCC)c1-c1ccc(NS(C)(=O)=O)cc1 [Example 04-b, N-[4′-(2,4-Diamino-pyrimidin-5-ylmethyl)-2′,6′-diethoxy-biphenyl-4-yl]-methanesulphonamide] | 1700 nM | 8 µg/mL (≈ 17.5 µM) | 2 µg/mL (≈ 4.37 µM) | 36 nM | – | – | – | – | –
CCOc1cc(Cc2cnc(N)nc2N)cc(OCC)c1-c1ccc(N)cc1 [Example 04-c, 5-(4′-Amino-2,6-diethoxy-biphenyl-4-ylmethyl)-pyrimidine-2 4-diamine] | 700 nM | 8 µg/mL (≈ 21.1 µM) | 4 µg/mL (≈ 10.5 µM) | 40 nM | – | – | – | – | –
CCOc1cc(Cc2cnc(N)nc2N)cc(OCC)c1-c1ccc(CN2CCOCC2)nc1 [Example 04-d, 5-[3,5-Diethoxy-4-(6-morpholin-4-ylmethyl-pyridin-3-yl)-benzyl]-pyrimidine-2,4-diamine] | 2100 nM | 8 µg/mL (≈ 17.2 µM) | 4 µg/mL (≈ 8.61 µM) | 65 nM | – | – | – | – | –
